Key:
[1] = system: saT1R1/R3, saT1R2a/R3 and saT1R2b/R3; assay: Screen of 20 L-AAs for dose-response activation of the three saT1R heterodimers in Cl.3 cells; type: cell-based, Sparus aurata; details: up to eight concentrations, 10 nM to 100 mM
Description: (§1) saT1Rs (saT1R1, saT1R2a, saT1R2b saT1R3) and saGαi1-2 genes were RT-PCR amplified using 5’ and 3’ flanking primers carrying HindIII and XhoI restriction sites, respectively. Gel-purified fragments were cloned into pGEM-T Easy vectors, re-sequenced, digested and subcloned into pcDNA™3 (Invitrogen, Carlsbad, CA, USA). Effective saT1R cloning into pcDNA™3 was further verified by HindIII/XhoI digestion. Transient co-transfections were done in 6-well plates (confluence ~70–80%) using 100 μL of reduced serum medium (Opti-MEM, Gibco, Thermo Fisher, Saint Louis, MO, USA) containing 150 ng of each selected pcDNA™3 construct, 1:10 charge ratio of Enhanced Green Fluorescent expressing construct (EGFP; positive control), and pBluescript II SK (+) vector DNA (Addgene, Watertown, MA, USA) up to 1 µg of totally transfected DNA. Following 24 h incubation, cells were washed with fresh standard medium and plated in polylysine treated plates for additional 24 h. Cells were then stimulated with L-AAs and sugar compounds for 18 h in a reduced assay medium (BME w/o L-glutamate; Gibco, Thermo Fisher, Saint Louis, MO, USA) + 1% FBS), to prevent unspecific Ca^2+/NFAT signaling activation and potential saT1R desensitization. All L-AAs and sugars used for in vitro experiments were obtained from Merck KGaA (Darmstadt, Germany).

saT1R2a/R3 = molecular target: T1, saT1R2a/R3 (Sparus aurata, UniProt A0A671TK95+A0A671VZB3); assay: saT1R2a/R3 heterodimer transiently transfected in stable pGL3-NFAT-luc-HEK293 (Cl.3) cells, luciferase reporter; type: cell-based; details: for T1R2a/R3 [MSD] maximum stimulation dose: as molarity, decimal comma
T1 sequence (A0A671TK95 20-825): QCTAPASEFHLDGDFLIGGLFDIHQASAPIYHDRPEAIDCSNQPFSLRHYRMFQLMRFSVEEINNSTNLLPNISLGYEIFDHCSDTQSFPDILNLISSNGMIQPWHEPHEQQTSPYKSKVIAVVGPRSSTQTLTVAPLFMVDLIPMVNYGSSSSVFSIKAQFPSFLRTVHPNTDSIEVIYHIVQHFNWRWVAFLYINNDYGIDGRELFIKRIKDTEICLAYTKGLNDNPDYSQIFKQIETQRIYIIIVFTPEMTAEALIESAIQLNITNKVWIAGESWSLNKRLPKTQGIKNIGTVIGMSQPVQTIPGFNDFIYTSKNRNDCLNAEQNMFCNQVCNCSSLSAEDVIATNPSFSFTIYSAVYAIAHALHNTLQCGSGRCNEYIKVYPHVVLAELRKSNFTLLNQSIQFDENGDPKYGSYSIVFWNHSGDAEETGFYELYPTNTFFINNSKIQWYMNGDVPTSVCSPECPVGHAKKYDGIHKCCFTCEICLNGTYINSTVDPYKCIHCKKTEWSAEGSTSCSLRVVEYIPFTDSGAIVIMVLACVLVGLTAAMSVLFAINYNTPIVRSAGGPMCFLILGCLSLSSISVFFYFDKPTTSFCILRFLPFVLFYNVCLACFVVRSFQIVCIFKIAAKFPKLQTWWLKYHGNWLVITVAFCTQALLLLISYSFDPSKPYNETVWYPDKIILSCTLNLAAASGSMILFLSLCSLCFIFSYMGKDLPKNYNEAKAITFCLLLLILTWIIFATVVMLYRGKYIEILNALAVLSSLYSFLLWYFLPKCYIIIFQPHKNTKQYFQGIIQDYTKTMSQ
T1 sequence (A0A671VZB3 24-860): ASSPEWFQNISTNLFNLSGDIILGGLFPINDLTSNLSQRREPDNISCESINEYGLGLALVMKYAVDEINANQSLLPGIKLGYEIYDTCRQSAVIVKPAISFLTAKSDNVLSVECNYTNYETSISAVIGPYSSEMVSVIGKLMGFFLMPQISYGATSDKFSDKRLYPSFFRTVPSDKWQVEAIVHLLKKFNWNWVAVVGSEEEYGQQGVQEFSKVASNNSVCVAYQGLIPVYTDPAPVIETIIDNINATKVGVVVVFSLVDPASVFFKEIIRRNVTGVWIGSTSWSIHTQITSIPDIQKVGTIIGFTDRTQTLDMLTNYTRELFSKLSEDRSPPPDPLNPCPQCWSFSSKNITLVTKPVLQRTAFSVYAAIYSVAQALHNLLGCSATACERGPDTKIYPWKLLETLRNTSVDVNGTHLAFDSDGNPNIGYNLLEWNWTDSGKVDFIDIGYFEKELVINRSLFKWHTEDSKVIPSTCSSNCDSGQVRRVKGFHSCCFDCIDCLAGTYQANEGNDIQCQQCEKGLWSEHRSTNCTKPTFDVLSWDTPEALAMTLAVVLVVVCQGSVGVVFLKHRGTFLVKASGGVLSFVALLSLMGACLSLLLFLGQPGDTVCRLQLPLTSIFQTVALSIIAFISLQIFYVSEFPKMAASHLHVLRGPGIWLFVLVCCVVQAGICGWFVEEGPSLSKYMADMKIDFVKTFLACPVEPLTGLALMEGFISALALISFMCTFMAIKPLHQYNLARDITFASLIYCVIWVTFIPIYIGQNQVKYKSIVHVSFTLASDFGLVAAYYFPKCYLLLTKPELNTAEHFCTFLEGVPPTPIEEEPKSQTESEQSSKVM
From the text: Figure 6 Amino acid Log-dose response curves of activation in heterologous co-transfected (Cl.3) cells with saT1R1/3 (green dots), saT1R2a/3 (red squares) and saT1R2b/3 (black triangles) heterodimers. Evaluation of L-AA responses was based on the RLU mean ± SEM of four independent determinations normalized to the mean response of the same transfections stimulated with reduced assay medium (Basal Medium Eagle w/o L-glutamate (BME) + 1% FBS), and expressed as the percentage relative to basal levels (BL).
HEK293 cells were cultured in standard medium DMEM (Gibco, Thermo Fisher, Saint Louis, MO, USA) containing 10% FBS, penicillin (100 U/mL) and streptomycin ([…]) at 37 °C, with a humidified atmosphere at 5% CO2. pGL3-NFAT-luc-HEK293 stable clones were generated by co-transfections of pGL3-NFAT-luc and tgCMV/HyTK plasmids (50:1), the latter harboring the hygromycin phosphotransferase gene, using Lipofectamine LTX according to supplier’s protocols (Thermo Fisher, Saint Louis, MO, USA). Initially, HEK293 cells were selected using DMEM containing 400 μg/mL hygromycin B (Sigma, Darmstadt, Germany) in 24-well plates for two weeks; 24 colonies were further grown out in 96-well plates under reduced hygromycin selection (200 µg/mL) for three weeks. Potentially resistant NFAT-luc-HEK293 clones (n = 22) were validated after incubation in assay medium (DMEM + 1% FBS) containing PMA or Ionomycin (Sigma, Darmstadt, Germany) for 18 h (triplicates, 50,000 cells/well). Luciferase activity was quantified with ONE-Glo™ EX Reagent Kit (Promega, Madison, WI, USA) using a 96-microplate TECAN reader (Trading AG, Switzerland).
as §1

SMILES	dose-response activation for at least one of the three saT1R heterodimers [1]	T1R2a/R3 [MSD] maximum stimulation dose (saT1R2a/R3)	concentration with significant activation (saT1R2a/R3; saT1R2a/R3, tested 1–500 mM) [mM]
C[C@H](N)C(=O)O [Ala, Alanine]	generated a dose-response activation	1,00 × 10^-1 M	–
N=C(N)NCCC[C@H](N)C(=O)O [Arg, Arginine]	did not respond in a dose-response manner	1,00 × 10^-5 M	–
NC(=O)C[C@H](N)C(=O)O [Asn, Asparagine]	did not respond in a dose-response manner	1,00 × 10^-1 M	–
N[C@@H](CC(=O)O)C(=O)O [Asp, Aspartic acid]	did not respond in a dose-response manner	1,00 × 10^-5 M	–
N[C@@H](CS)C(=O)O [Cys, Cysteine]	did not respond in a dose-response manner	1,00 × 10^-4 M	–
OC[C@H]1OC(O)[C@H](O)[C@@H](O)[C@@H]1O (stereo partly drawn) [D-Glucose]	–	–	200
NC(=O)CC[C@H](N)C(=O)O [Gln, Glutamine]	generated a dose-response activation	1,00 × 10^-1 M	–
N[C@@H](CCC(=O)O)C(=O)O [Glu, Glutamic acid]	generated a dose-response activation	1,00 × 10^-2 M	–
NCC(=O)O [Gly, Glycine]	generated a dose-response activation	1,00 × 10^-1 M	–
N[C@@H](Cc1c[nH]cn1)C(=O)O [His, Histidine]	did not respond in a dose-response manner	1,00 × 10^-5 M	–
CC[C@H](C)[C@H](N)C(=O)O [Ile, Isoleucine]	generated a dose-response activation	1,00 × 10^-1 M	–
CC(C)C[C@H](N)C(=O)O [Leu, Leucine]	generated a dose-response activation	1,00 × 10^-1 M	–
NCCCC[C@H](N)C(=O)O [Lys, Lysine]	did not respond in a dose-response manner	1,00 × 10^-3 M	–
CSCC[C@H](N)C(=O)O [Met, Methionine]	generated a dose-response activation	1,00 × 10^-1 M	–
N[C@@H](Cc1ccccc1)C(=O)O [Phe, Phenylalanine]	did not respond in a dose-response manner	1,00 × 10^-2 M	–
O=C(O)[C@@H]1CCCN1 [Pro, Proline]	generated a dose-response activation	1,00 × 10^-1 M	–
N[C@@H](CO)C(=O)O [Ser, Serine]	generated a dose-response activation	1,00 × 10^-1 M	–
C[C@@H](O)[C@H](N)C(=O)O [Thr, Threonine]	generated a dose-response activation	1,00 × 10^-1 M	–
N[C@@H](Cc1c[nH]c2ccccc12)C(=O)O [Trp, Tryptophan]	did not respond in a dose-response manner	1,00 × 10^-3 M	–
N[C@@H](Cc1ccc(O)cc1)C(=O)O [Tyr, Tyrosine]	did not respond in a dose-response manner	1,00 × 10^-3 M	–
CC(C)[C@H](N)C(=O)O [Val, Valine]	generated a dose-response activation	1,00 × 10^-1 M	–
